Patent US11001578B2, “N-((HET)arylmethyl)-heteroaryl-carboxamides compounds as plasma kallikrein inhibitors” (KALVISTA PHARMACEUTICALS LIMITED, priority 2014, dated 2021)

What was measured:
Human KLK1 = Human KLK1 (Homo sapiens (Human), UniProt P06870); assay: Determination of the IC50 for KLK1 (fluorogenic substrate H-DVal-Leu-Arg-AFC); format: biochemical; details: 25° C.
Protocol: Determination of the IC50 for KLK1
Human KLK1 (Callbiochem) was incubated at 25° C. with the fluorogenic substrate H-DVal-Leu-Arg-AFC and various concentrations of the test compound. Residual enzyme activity (initial rate of reaction) was determined by measuring the change in […] at 410 nm and the IC50 value for the test compound was determined.

Human FXIa = Human FXIa (Homo sapiens (Human), UniProt P03951); assay: Determination of the % inhibition for FXIa (fluorogenic substrate Z-Gly-Pro-Arg-AFC); format: biochemical; details: 40 μM of the test compound, 25° C.
Sequence of Human FXIa (P03951 388-625 limits assumed): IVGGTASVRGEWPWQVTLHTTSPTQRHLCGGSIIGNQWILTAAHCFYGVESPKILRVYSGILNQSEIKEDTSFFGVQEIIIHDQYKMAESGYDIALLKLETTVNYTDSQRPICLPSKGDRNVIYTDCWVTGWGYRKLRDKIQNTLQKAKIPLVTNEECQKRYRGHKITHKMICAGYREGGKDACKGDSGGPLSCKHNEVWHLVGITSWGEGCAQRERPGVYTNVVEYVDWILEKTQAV
Sequence of Human FXIa (P03951 19-387 partner limits assumed): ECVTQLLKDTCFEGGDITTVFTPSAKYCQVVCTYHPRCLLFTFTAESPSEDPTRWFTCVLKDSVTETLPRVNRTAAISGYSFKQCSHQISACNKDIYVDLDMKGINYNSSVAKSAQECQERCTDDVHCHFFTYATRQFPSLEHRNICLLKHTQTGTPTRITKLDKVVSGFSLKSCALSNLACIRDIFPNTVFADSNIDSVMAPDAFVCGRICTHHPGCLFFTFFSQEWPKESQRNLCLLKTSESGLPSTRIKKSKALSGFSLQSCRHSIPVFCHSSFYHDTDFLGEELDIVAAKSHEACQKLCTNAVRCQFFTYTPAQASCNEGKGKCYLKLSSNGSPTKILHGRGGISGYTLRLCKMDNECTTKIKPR
Protocol: Determination of the % Inhibition for FXIa
Human FXIa (Enzyme Research Laboratories) was incubated at 25° C. with the fluorogenic substrate Z-Gly-Pro-Arg-AFC and 40 μM of the test compound. Residual enzyme activity (initial rate of reaction) was determined by measuring the change in […].

Sequence of Human KLK1 (P06870 25-262): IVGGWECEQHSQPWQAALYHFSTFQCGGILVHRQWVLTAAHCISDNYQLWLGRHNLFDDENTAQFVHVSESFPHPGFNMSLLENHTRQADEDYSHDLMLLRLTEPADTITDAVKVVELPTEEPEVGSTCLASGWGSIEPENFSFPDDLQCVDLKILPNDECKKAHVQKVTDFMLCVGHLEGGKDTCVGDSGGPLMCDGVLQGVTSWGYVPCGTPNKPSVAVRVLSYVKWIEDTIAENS

Compound | IC50 (Human KLK1) [µM] | % Inhibition @ 40 μM (human FXIa) (Human FXIa) [%]
COc1cc(F)c(CNC(=O)c2cn(Cc3ccc(Cn4cc(C)cn4)cc3)nc2C(F)(F)F)c(F)c1 [Example 11, N-[(2,6-difluoro-4-methoxyphenyl)methyl]-1-({4-[(4-methylpyrazol-1-yl)methyl]phenyl}methyl)-3-(trifluoromethyl)pyrazole-4-carboxamide] | > 10 | 
NC(=O)c1cccc(CNC(=O)c2cn(Cc3ccc(Cn4ccccc4=O)cc3)nc2C2CC2)c1 [Example 49, N-[(3-carbamoylphenyl)methyl]-3-cyclopropyl-1-({4-[(2-oxopyridin-1-yl)methyl]phenyl}methyl)pyrazole-4-carboxamide] |  | 0
COc1cccc(CNC(=O)c2cn(Cc3ccc(Cn4ccccc4=O)cc3)nc2C2CC2)c1F [Example 52, 3-cyclopropyl-N-[(2-fluoro-3-methoxyphenyl)methyl]-1-({4-[(2-oxopyridin-1-yl)methyl]phenyl}methyl)pyrazole-4-carboxamide] |  | 1
Nc1nn(Cc2ccc(Cn3ccccc3=O)cc2)cc1C(=O)NCc1ccc(OC(F)(F)F)cc1 [Example 58, 3-amino-1-({4-[(2-oxopyridin-1-yl)methyl]phenyl}methyl)-N-{[4-(trifluoromethoxy)phenyl]methyl}pyrazole-4-carboxamide] |  | 0
